How the values were obtained:
PC3 (prostate) = test: In vitro cytotoxic activity assay (MTT), PC3; assay type: cell-based; details: Homo sapiens, Prostate cell; PC3 (prostate) cells, exposed for 96 hours; read-out: IC50, concentration eliciting a 50% inhibition of cell proliferation
Method: (§1) Compounds 1-15 were screened for their in vitro cytotoxic activity utilizing a 3-(4,5-dimethyl-thiazol-2-yl)-2,5-diphenyltetrazolium bromide (MTT) assay against selected cancer human cell lines consisting of PC3 (prostate), HCT116 (colon), A375 (melanoma), H1299 (lung), MIAPaCa-2 (pancreas), HL60 (leukemia), MCF7 (breast), MDA-MB-231 (breast) (T. Mosmann, J. Immunol. Meth., 1983, 65, 55-63). The cells were cultured at 37° C. in RMPI1640 medium supplemented with 10% fetal bovine serum, 50 IU/mL penicillin, and 50 μg/mL streptomycin in a 5% CO2 incubator. All cells were sub-cultured 3 times/week by trypsinisation. Viable cells were seeded and allowed to adhere for 12 h before a test drug was added in 96-well plates at an initial density of 1.0×10^5 cells/mL. Tumour cell lines were separately exposed to various concentrations of the tested compounds followed by incubation at a temperature of 37° C. during 96 h inside a medium of fresh RMPI 1640. Cells were subsequently incubated at 37° C. using MIT at 0.5 mg/mL during 4 h. After removal of supernatant, formazan crystals were dissolved in isopropanol and the optical density was measured at 570 nm. CX-4945 was used as a positive control.

A375 (melanoma) = test: In vitro cytotoxic activity assay (MTT), A375; assay type: cell-based; details: Homo sapiens, A-375; A375 (melanoma) cells, exposed for 96 hours; read-out: IC50, concentration eliciting a 50% inhibition of cell proliferation
Method: as §1

MCF7 (breast) = test: In vitro cytotoxic activity assay (MTT), MCF7; assay type: cell-based; details: Homo sapiens; MCF7 (breast) cells, exposed for 96 hours; read-out: IC50, concentration eliciting a 50% inhibition of cell proliferation
Method: as §1

[1] = molecular target: T1, recombinant human CK2 (RRββ-holoenzyme) (Homo sapiens, UniProt P68400); test: CK2 Kinase Assay (33P-ATP, filter plate); assay type: biochemical; details: final ATP concentration 15 μM, 10 min at 30° C.; read-out: protein kinase CK2 activity IC50
T1 construct: purchased Millipore
T1 sequence (P68400 whole entry): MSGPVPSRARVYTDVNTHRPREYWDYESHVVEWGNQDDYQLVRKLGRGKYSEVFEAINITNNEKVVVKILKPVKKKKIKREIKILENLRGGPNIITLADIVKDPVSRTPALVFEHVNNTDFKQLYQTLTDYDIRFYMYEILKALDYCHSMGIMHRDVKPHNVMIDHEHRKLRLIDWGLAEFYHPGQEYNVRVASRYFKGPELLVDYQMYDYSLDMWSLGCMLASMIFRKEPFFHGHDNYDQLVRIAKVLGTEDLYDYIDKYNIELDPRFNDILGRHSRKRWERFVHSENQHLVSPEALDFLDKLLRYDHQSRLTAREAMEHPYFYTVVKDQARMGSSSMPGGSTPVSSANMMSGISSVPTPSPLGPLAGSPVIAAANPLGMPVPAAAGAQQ
T1 sequence (P67870 whole entry partner): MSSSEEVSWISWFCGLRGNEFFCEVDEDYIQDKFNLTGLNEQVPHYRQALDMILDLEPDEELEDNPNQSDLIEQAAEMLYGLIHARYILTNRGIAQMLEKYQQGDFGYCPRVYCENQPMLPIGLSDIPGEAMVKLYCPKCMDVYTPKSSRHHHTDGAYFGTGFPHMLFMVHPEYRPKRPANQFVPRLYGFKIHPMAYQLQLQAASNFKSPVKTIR
Method: CK2 Kinase Assay was conducted using the protocol as described in Pierre F. et al; J. Med. Chem. 2011, 54, 635-654. The tested compounds in aqueous solution were added at a volume of 10 μL to a reaction mixture comprising 10 μL of assay dilution buffer (ADB; 20 mM MOPS, pH 7.2, 25 mM β-glycerol phosphate, 5 mM EGTA, 1 mM sodium orthovanadate, and 1 mM dithiothreitol), 10 μL of substrate peptide (RRRDDDSDDD, dissolved in ADB at a concentration of 1 mM), 10 μL of recombinant human CK2 (RRββ-holoenzyme, 25 ng dissolved in ADB; Millipore). Reactions were initiated by the addition of 10 μL of ATP solution (90% 75 mMMgCl2, 75 μM ATP (final ATP concentration: 15 μM) dissolved in ADB; 10% [γ-33P] ATP (stock 1 mCi/100 μL; 3000 Ci/mmol (Perkin-Elmer) and maintained for 10 min at 30° C. The reactions were quenched with 100 μL of 0.75% phosphoric acid and then transferred to and filtered through a phosphor cellulose filter plate (Millipore). After washing each well five times with 0.75% phosphoric acid, the plate was dried under vacuum for 5 min and, following the addition of 15 μL of scintillation fluid to each well, the residual radioactivity was measured using a Wallac luminescence counter. The IC50 values were derived from eight concentrations of test inhibitors.

MIAPaCa-2 (pancreas) = test: In vitro cytotoxic activity assay (MTT), MIAPaCa-2; assay type: cell-based; details: Homo sapiens, MIA PaCa-2; MIAPaCa-2 (pancreas) cells, exposed for 96 hours; read-out: IC50, concentration eliciting a 50% inhibition of cell proliferation
Method: as §1

MDA-MB-231 (breast) = test: In vitro cytotoxic activity assay (MTT), MDA-MB-231; assay type: cell-based; details: Homo sapiens; MDA-MB-231 (breast) cells, exposed for 96 hours; read-out: IC50, concentration eliciting a 50% inhibition of cell proliferation
Method: as §1

H1299 (lung) = test: In vitro cytotoxic activity assay (MTT), H1299; assay type: cell-based; details: Homo sapiens, NCI-H1299; H1299 (lung) cells, exposed for 96 hours; read-out: IC50, concentration eliciting a 50% inhibition of cell proliferation
Method: as §1

HL60 (leukemia) = test: In vitro cytotoxic activity assay (MTT), HL60; assay type: cell-based; details: Homo sapiens, HL-60; HL60 (leukemia) cells, exposed for 96 hours; read-out: IC50, concentration eliciting a 50% inhibition of cell proliferation
Method: as §1

HCT116 (colon) = test: In vitro cytotoxic activity assay (MTT), HCT116; assay type: cell-based; details: Homo sapiens, HCT-116; HCT116 (colon) cells, exposed for 96 hours; read-out: IC50, concentration eliciting a 50% inhibition of cell proliferation
Method: as §1

IC50 [1]: 56 nM
SMILES: Clc1cccc(-n2c3ccncc3c3nc4ccncn4c32)c1 [Compound 1, 5-(3-chlorophenyl)-5H-pyrido[3″,4″:4′,5′]pyrrolo[3′,2′:4,5]imidazo[1,2-c]pyrimidine]
IC50 (PC3 (prostate)): 1300 nM
IC50 (A375 (melanoma)): 3.7 µM
IC50 (MCF7 (breast)): 4.1 µM
IC50 (MIAPaCa-2 (pancreas)): 900 nM
IC50 (MDA-MB-231 (breast)): 2400 nM
IC50 (H1299 (lung)): 2600 nM
IC50 (HL60 (leukemia)): 2800 nM
IC50 (HCT116 (colon)): 2100 nM

From patent publication US11905288B1, “Pyrido[3″,4″:4′, 5′]pyrrolo[3′,2′:4,5]imidazole[1,2-c]pyrimidine compounds as CK2 inhibitors” (KING FAISAL UNIVERSITY, priority 2023, dated 2024)
